The source of these data is patent publication US20230190852A1, “COMPOSITIONS AND METHODS FOR JOINT HEALTH” (Unigen, Inc., priority 2013, published 2023).

For one experiment, the system named is Sprague-Dawley (SD) rats. Kind of experiment: Monosodium iodoacetate (MIA) induced osteoarthritis rat model. Type of experiment: in vivo. Conditions: for reduction in pain sensitivity: 10 mg/kg oral per day; for Pain sensitivity, % (of week 0 mean) / Pain sensitivity, Mean: oral 10 mg/kg.
In a further experiment the test system is CD-1 mice. Briefly: Visceral pain perception model (Writhing's test, acetic acid). Type of experiment: in vivo. As to the method: Mice (n=6 per group) were habituated under an inverted Plexiglas observation chamber for 30 minutes to allow them to acclimatize to their surroundings. Animals were orally administered treatment articles at different doses, […], or vehicle control (propylene glycol) 30 minutes before intraperitoneal administration of freshly made acetic acid solution (0.7% in 0.9% NaCl) at 10 ml/kg using a 26 gauge needle. The experiment was carried out at room temperature. After the challenge, each animal was placed back into its own individual section of the observation chamber and the number of constrictions of the abdominal muscle together with stretching was counted cumulatively over a period of 30 minutes (Collier et al., Br. J. Pharmacol. Chemother. 32:295, 1968).

Experiment [1] concerns Rabbit cartilage explants. Briefly: Ex vivo glycosaminoglycans (GAG) release assay. Type of experiment: cell-based. Here is the method:
Articular cartilage from hock joints of rabbits (2.5 kg body weight) was removed immediately after each animal was sacrificed and articular cartilage explants were obtained by following the method described by Sandy et al. (Biochem. Biophy Acta 543:36, 1978). Briefly, after the articular surfaces were surgically exposed under sterile conditions, approximately 200-220 mg articular surfaces per joint were dissected and submerged into complete medium (DMEM, supplemented with heat inactivated 5% FBS; penicillin 100 U/ml; streptomycin 100 ug/ml). They were then rinsed several times with the complete medium and incubated for 1 to 2 days at 37° C. in a humidified 5% CO2/95% air incubator for stabilization. The complete medium was replaced with a basal medium (DMEM, supplemented with heat-inactivated 1% FBS, 10 mM HEPES, and penicillin 100 U/ml streptomycin 100 μg/ml). Approximately 30 mg cartilage pieces (2×3×0.35 mm/piece) were placed in 24-well plates and treated with given concentrations of test agents. After pretreatment for 1 h, 5 ng/ml of rhIL-1α was added to the culture medium and further incubated at 37° C. in a humidified 5% CO2/95% air incubator. The culture medium was collected 24 h later and stored at −20° C. until assay.
The amount of sulphated GAGs (e.g., released from proteoglycans) in the medium at the end of the reaction reflects the amount of articular cartilage degradation, which was determined using the commercially available 1,9-dimethy-methylene blue method according to the instructions of the manufacturer (Blyscan™ assay, Accurate Chemical and Scientific Corp., Westbury, N.Y.).

Another experiment relates to Lewis rats. Kind of experiment: Carrageenan-induced rat paw edema model (paw edema and pain sensitivity). The class given is in vivo. The note with it: for Pain sensitivity, percent change of vehicle / Paw edema, percent change of vehicle: 166 mg/kg oral 1 hr after carrageenan, female Lewis rats. Here is the method:
Local inflammation was induced by intraplantar injection of carrageenan λ (Sigma, St. Louis, Mo.; 100 μl of 1% [w/v] in saline) into the plantar surface of right hind paw of sedated rat (with 2.5% isoflurane) at time 0 (T=0) (Gamache et al., J Neurosurg. 65:679, 1986; Guay et al., J. Biol. Chem. 279:24866, 2004; Chou et al., Anesth. Analg. 97:1724, 2003). Rats were acclimated in a procedure room for 20-30 minutes before each measurement was taken. Allodynia was evaluated by measuring responsiveness to the tip of a Randell-Selitto paw pressure test applied perpendicular to the central plantar surface of the right hind paw. A positive response to the applied pressure, noted by sharp withdrawal of the paw, was recorded automatically by an electronic Von Frey Anesthesiometer (2390 series Electrovonfrey, IITC, Woodland Hills, Calif.) (Vivancos et al., Braz. J. Med. Biol. Res. 37:391, 2004). Mechanical allodynia was evaluated before carrageenan inoculation, and thereafter at 1 hr, 2 hr, 4 hr and 6 hr. Paw edema volume was measured with the use of Plethysmometer (IITC, Woodland Hills, Calif.; Model 520) at time 0 (before carrageenan), and then 1 hr, 2 hr, 4 hr, and 6 hr after carrageenan injection. Animals (N=5 per group) were orally gavaged with a positive control ibuprofen (Spectrum Chemical MFG, Gardena, Calif.) (100 or 200 mg/kg); test articles such as: extracts, and combinations of extracts at various doses from 100, 200, 300 to 400 mg/kg and vehicle control (propylene glycol) were given 1 hour after carrageenan inoculation unless specified otherwise.

Setting [2] is: MIA OA rats, 10 mg/kg oral, 6 weeks, modified Mankin scoring.

Protocol for Sprague-Dawley (SD) rats: The animals were randomized and assigned to treatment groups before the study began. After anesthetization with isoflurane, rats were injected with 50 μl containing 1 mg Monosodium iodoacetate (Sigma, St. Louis, Mo.; lot #SLBB6147V) using a 26 gauge needle inserted through the patellar ligament into the intra-articular space of the right knee. Normal rats were injected with an equivalent volume of saline instead of MIA. […] The first sample treatment was administered 1 hr before MIA injection. Normal and control rats were given orally an equal volume of vehicle (0.5% CMC in saline). Body weight and allodynia were measured once a week for 4 weeks. Allodynia was evaluated by measuring responsiveness to a tip of Randall-Selitto test (2390 series, IITC, Woodland Hills, Calif.) applied perpendicular to the central plantar surface of the right hind paw.
Male Sprague—Dawley (SD) rats weighing about 170 to about 230 g (6 weeks of age) were purchased and acclimated for one week. […] Each group was orally gavaged with their respective treatment. Anesthetized rats were injected with 0.8 mg of MIA in a 50 μl saline solution into the intra-articular pocket one hour after the second dose of treatments. Pain sensitivity was measured once a week using a Randall-Salitto meter and treatment lasted for 6 weeks. Body weights were measured once a week to calculate the respective weekly dosage of each group.

As to `O=C(O)Cc1ccccc1Nc1c(Cl)cccc1Cl` [Diclofenac], the results for the “reduction in pain sensitivity” value in the experiment with Sprague-Dawley (SD) rats (week 5) and in the experiment with Sprague-Dawley (SD) rats (week 6) were 20.8% and 18.2%, respectively. The “articular cartilage matrix integrity, total Mankin score vs. vehicle” value in the experiment with Sprague-Dawley (SD) rats (G:M 500 mg/kg, Diclofenac 10 mg/kg, 6 weeks) is “not statistically significant”. In addition, the “Total Mankin Score” value with Sprague-Dawley (SD) rats (MIA OA rats, 10 mg/kg oral, 6 weeks) is on record as 4.9 ± 2.69. Also, in the experiment with Sprague-Dawley (SD) rats (setting [2]), the “Cellular Abnormality (0-3) histopathological score” value amounted to 1.3 ± 0.67. Moreover, in the experiment with Sprague-Dawley (SD) rats (setting [2]), the “Safranin-O Staining (0-4) histopathological score” value is on record as 1.7 ± 0.82. Besides, the “Pain sensitivity, % (of week 0 mean)” value in the experiment with Sprague-Dawley (SD) rats (MIA OA rats, Week 0) was 100.00%; with Sprague-Dawley (SD) rats (MIA OA rats, Week 1), 84.51%; in the experiment with Sprague-Dawley (SD) rats (MIA OA rats, Week 2) it was 89.88%; with Sprague-Dawley (SD) rats (MIA OA rats, Week 3), 94.05%; with Sprague-Dawley (SD) rats (MIA OA rats, Week 4) it was 87.12%; in the experiment with Sprague-Dawley (SD) rats (MIA OA rats, Week 5) it was 84.43%. In addition, in the experiment with Sprague-Dawley (SD) rats (MIA OA rats, Week 6), the “Pain sensitivity, % (of week 0 mean)” value amounted to 83.28%. In addition, the “Pain sensitivity, Mean” value with Sprague-Dawley (SD) rats (MIA OA rats, Week 0, Randall-Salitto meter) is 173.20; in the experiment with Sprague-Dawley (SD) rats (MIA OA rats, Week 1, Randall-Salitto meter), 146.37; in the experiment on Sprague-Dawley (SD) rats (MIA OA rats, Week 2, Randall-Salitto meter), 155.67; in the experiment on Sprague-Dawley (SD) rats (MIA OA rats, Week 3, Randall-Salitto meter), 162.90; with Sprague-Dawley (SD) rats (MIA OA rats, Week 4, Randall-Salitto meter) it was 150.90; with Sprague-Dawley (SD) rats (MIA OA rats, Week 5, Randall-Salitto meter), 146.23. Further, the “Pain sensitivity, Mean” value in the experiment with Sprague-Dawley (SD) rats (MIA OA rats, Week 6, Randall-Salitto meter) was found to be 144.23.

In the case of `CC(=O)N[C@H]1C(O)O[C@H](CO)[C@@H](O)[C@@H]1O` (some centres unmarked) [NAG, N-Acetyl Glucosamine], the “number of abdominal constrictions / behavioral responses in 30 minutes, Mean ± SD” value with CD-1 mice (300 mg/kg oral) is recorded as 91.0 ± 18.7. Moreover, the “Visceral pain sensitivity, behavioral responses, Mean ± SD” value in the experiment with CD-1 mice (300 mg/kg oral 30 min before acetic acid i.p., observed 30 minutes, CD-1 mice) came to 91.0 ± 18.7. The “Visceral pain sensitivity, % inhibition vs vehicle” value in the experiment on CD-1 mice (300 mg/kg oral, vs vehicle, CD-1 mice) was determined as 5.4%. The molecule further gave an activity at 25 µg/mL in experiment [1] (Oryctolagus cuniculus, 24 h, 25 μg/ml, rhIL-1α 5 ng/ml (IL-1α alone = 100)) of 95.7%. This molecule also gave an activity at 50 µg/mL in experiment [1] (Oryctolagus cuniculus, 24 h, 50 μg/ml, rhIL-1α 5 ng/ml (IL-1α alone = 100)) of 99.2%. Further, the activity at 100 µg/mL in experiment [1] (Oryctolagus cuniculus, 24 h, 100 μg/ml, rhIL-1α 5 ng/ml (IL-1α alone = 100)) was 87.5%. This molecule displayed an activity at 150 µg/mL in experiment [1] (Oryctolagus cuniculus, 24 h, 150 μg/ml, rhIL-1α 5 ng/ml (IL-1α alone = 100)) of 81.2%. For the same molecule, the “protective effect on rhIL-1α-mediated PG degradation / GAG release” value in experiment [1] (rhIL-1α 5 ng/ml) was “marginal”. For the same molecule, the results for the “Pain sensitivity, percent change of vehicle” value in the experiment on Lewis rats (1 hr), in the experiment on Lewis rats (3 hr) and in the experiment with Lewis rats (5 hr) were 8.8%, 3.6% and 2.6%, respectively. In addition, the figures for the “Paw edema, percent change of vehicle” value with Lewis rats (1 hr), in the experiment on Lewis rats (3 hr) and in the experiment with Lewis rats (5 hr) were 8.2%, 15.8% and 6.2%, respectively. For the same molecule, in the experiment on Lewis rats (oral, rosmarinic acid 200 mg/kg, eriocitrin 100 mg/kg, NAG 166 mg/kg), the “analgesic and anti-inflammatory activity” value is given as “minimal to no activity in inhibiting pain or inflammation”.
